Columns and labels:
[1] = target: T1, HCT116 isogenic IDH1-R132H mutant cells (Homo sapiens, UniProt O75874, R132H); test: Cellular 2-HG assay using HCT116 mutant IDH1 cells (R132H); format: cell-based; conditions: cellular 2-HG inhibition, 24 hours, RapidFire mass spectrometry
T1 construct: HCT116 isogenic IDH1-R132H and IDH1-R132C mutant cells; endogenous in cells; host or cells: HCT116 isogenic IDH1-R132H mutant cells (kept under G418)
Protocol: (§1) Cellular 2-HG Assay Using HCT116 Mutant IDH1 Cells
(§2) HCT116 isogenic IDH1-R132H and IDH1-R132C mutant cells were cultured in growth media (McCoy's 5A, 10% fetal bovine serum, 1× antibiotic-antimycotic solution and 0.3 mg/mL G418) in 5% CO2 in an incubator at 37° C. To prepare the assay, cells were trypsinized and resuspended in assay media (McCoy's 5A with no L-glutamine, 10% fetal bovine serum, 1× antibiotic-antimycotic solution and 0.3 mg/mL G418). An aliquot of 10,000 cells/100 μL was transferred to each well of a clear 96-well tissue culture plate. The cells were incubated in 5% CO2 at 37° C. in an incubator overnight to allow for proper cell attachment. An aliquot of 50 μL of compound containing assay media were then added to each well and the assay plate was kept in 5% CO2 at 37° C. in an incubator for 24 hours. The media was then removed from each well and 150 μL of a methanol/water mixture (80/20 v/v) was added to each well. The plates were kept at −80° C. freezer overnight to allow for complete cell lysis. An aliquot of 125 μL of extracted supernatant was analyzed by RapidFire high-throughout-mass spectrometry (Agilent) to determine the cellular 2-HG level. The IC50 of a given compound was calculated by fitting the dose response curve of cellular 2-HG inhibition at a given concentration with the four parameter logistic equation

[2] = target: IDH1-R132H recombinant protein (Homo sapiens, UniProt O75874, R132H); test: IDH1-R132H enzymatic assay (NADPH consumption, diaphorase/resazurin readout); format: biochemical; conditions: 30 nM IDH1-R132H, inhibition of NADPH consumption; read-out: Enzyme IDH1 R132H IC50
Protocol: (§3) IDH1-R132H and IDH1-R132C Enzymatic Assay
(§4) Assays were performed in a 384-well black plate. An aliquot of 250 nL of compound was incubated with 10 μL of 30 nM IDH1-R132H or 10 nM IDH1-R132C recombinant protein in assay buffer (50 mM Tris pH=7.5, 150 mM NaCl, 5 mM MgCl2, 0.1% (w/v) Bovine Serum Albumin, and 0.01% Triton X-100) in each well at 25° C. for 15 minutes. After the plate was centrifuged briefly, an aliquot of 10 μL of 2 mM α-ketoglutarate and 20 μM NADPH solution prepared in assay buffer was then added to each well and the reaction was maintained at 25° C. for 45 minutes. An aliquot of 10 μL of diaphorase solution (0.15 U/mL diaphorase and 30 μM Resazurin in assay buffer) was added to each well. The plate was maintained at 25° C. for 15 minutes and then read on a plate reader with excitation and emission wavelengths at 535 nm and 590 nm, respectively. The IC50 of a given compound was calculated by fitting the dose response curve of inhibition of NADPH consumption at a given concentration with the four parameter logistic equation.

[3] = target: T2, HCT116 isogenic IDH1-R132C mutant cells (Homo sapiens, UniProt O75874, R132C); test: Cellular 2-HG assay using HCT116 mutant IDH1 cells (R132C); format: cell-based; conditions: cellular 2-HG inhibition, 24 hours, RapidFire mass spectrometry
T2 construct: HCT116 isogenic IDH1-R132H and IDH1-R132C mutant cells; endogenous in cells; host or cells: HCT116 isogenic IDH1-R132C mutant cells (kept under G418)
Protocol: as §1, §2

[4] = target: IDH1-R132C recombinant protein (Homo sapiens, UniProt O75874, R132C); test: IDH1-R132C enzymatic assay (NADPH consumption, diaphorase/resazurin readout); format: biochemical; conditions: 10 nM IDH1-R132C, inhibition of NADPH consumption; read-out: Enzyme IDH1 R132C IC50
Protocol: as §3, §4

Sequence of IDH1-R132H recombinant protein (O75874 whole entry R132H): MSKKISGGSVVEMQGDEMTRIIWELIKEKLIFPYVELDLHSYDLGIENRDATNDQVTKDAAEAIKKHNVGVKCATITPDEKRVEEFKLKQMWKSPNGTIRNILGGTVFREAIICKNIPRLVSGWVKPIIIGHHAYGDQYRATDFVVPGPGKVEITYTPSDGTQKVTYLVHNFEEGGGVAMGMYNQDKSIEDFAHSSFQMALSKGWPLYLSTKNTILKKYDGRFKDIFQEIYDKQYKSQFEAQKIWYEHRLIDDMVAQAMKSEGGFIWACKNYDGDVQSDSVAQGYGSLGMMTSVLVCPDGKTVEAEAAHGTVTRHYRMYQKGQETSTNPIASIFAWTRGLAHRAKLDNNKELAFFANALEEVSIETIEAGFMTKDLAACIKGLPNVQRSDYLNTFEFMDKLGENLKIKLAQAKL
T1 sequence (O75874 2-414 R132H limits assumed): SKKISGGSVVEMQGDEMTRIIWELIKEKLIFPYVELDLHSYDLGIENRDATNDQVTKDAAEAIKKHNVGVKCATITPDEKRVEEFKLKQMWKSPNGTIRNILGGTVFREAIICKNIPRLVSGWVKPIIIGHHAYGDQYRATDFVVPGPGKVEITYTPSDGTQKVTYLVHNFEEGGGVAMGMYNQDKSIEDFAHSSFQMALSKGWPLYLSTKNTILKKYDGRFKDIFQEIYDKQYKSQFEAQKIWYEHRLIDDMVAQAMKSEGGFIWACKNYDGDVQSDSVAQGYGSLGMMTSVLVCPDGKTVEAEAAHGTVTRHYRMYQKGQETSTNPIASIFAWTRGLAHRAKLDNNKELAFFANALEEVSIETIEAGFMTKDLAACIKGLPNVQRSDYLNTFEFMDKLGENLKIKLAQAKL
Sequence of IDH1-R132C recombinant protein (O75874 whole entry R132C): as the sequence (O75874 whole entry R132H) above, with H132C counted along it
T2 sequence (O75874 2-414 R132C limits assumed): as the sequence (O75874 2-414 R132H limits assumed) above, with H131C counted along it

| SMILES | melting point | IC50 [1] | IC50 [2] | IC50 [3] | IC50 [4] |
| --- | --- | --- | --- | --- | --- |
| C[C@H](Nc1ncc(C#N)s1)c1cc2cc(Cl)ccc2[nH]c1=O [Compound I-1, (S)-2-((1-(6-chloro-2-oxo-1,2-dihydroquinolin-3-yl)ethyl)amino)thiazole-5-carbonitrile] | 211 to 213 °C (dec.) | 100 to 1000 nM | < 100 nM | 100 to 1000 nM | 100 to 1000 nM |
| CCOC(=O)c1sc(N[C@@H](C)c2cc3cc(Cl)ccc3[nH]c2=O)nc1C [Compound I-9, (S)-ethyl 2-((1-(6-chloro-2-oxo-1,2-dihydroquinolin-3-yl)ethyl)amino)-4-methylthiazole-5-carboxylate] |  |  | 1000 to 10000 nM |  |  |
| COc1ccc2[nH]c(=O)c(CNc3nc4ccccc4s3)cc2c1 [Compound I-15, 3-{[(1,3-benzothiazol-2-yl)amino]methyl}-6-methoxy-1,2-dihydroquinolin-2-one] |  |  | > 10000 nM |  |  |
| C[C@H](Nc1ncc(C#N)s1)c1cc2cc(Cl)c(OCc3ccccn3)cc2[nH]c1=O [Compound I-4, (S)-2-((1-(6-chloro-2-oxo-7-(pyridin-2-ylmethoxy)-1,2-dihydroquinolin-3-yl)ethyl)amino)thiazole-5-carbonitrile] |  | < 100 nM | < 100 nM | < 100 nM | < 100 nM |
| C[C@@H](Nc1ncc(C#N)s1)c1cc2cc(Cl)c(OCc3ccccn3)cc2[nH]c1=O [Compound I-5, (R)-2-((1-(6-chloro-2-oxo-7-(pyridin-2-ylmethoxy)-1,2-dihydroquinolin-3-yl)ethyl)amino)thiazole-5-carbonitrile] |  |  | 100 to 1000 nM |  | 1000 to 10000 nM |
| COc1cc2[nH]c(=O)c(C(C)Nc3ncc(C#N)s3)cc2cc1Cl (stereo not drawn) [Compound I-2, 2-((1-(6-chloro-7-methoxy-2-oxo-1,2-dihydroquinolin-3-yl)ethyl)amino)thiazole-5-carbonitrile] |  | < 100 nM | < 100 nM | 100 to 1000 nM | 100 to 1000 nM |
| O=c1[nH]c2ccc(Cl)cc2cc1CNc1nc(-c2ccc(F)c(F)c2)cs1 [Compound I-14, 6-chloro-3-({[4-(3,4-difluorophenyl)-1,3-thiazol-2-yl]amino}methyl)-1,2-dihydroquinolin-2-one] |  |  | 1000 to 10000 nM |  |  |
| C[C@H](Nc1ncc(C(N)=O)s1)c1cc2cc(Cl)ccc2[nH]c1=O [Compound I-10, (S)-2-((1-(6-Chloro-2-oxo-1,2-dihydroquinolin-3-yl)ethyl)amino)thiazole-5-carboxamide] |  |  | 100 to 1000 nM |  | 1000 to 10000 nM |
| CC(=O)Nc1cnc(N[C@@H](C)c2cc3cc(Cl)ccc3[nH]c2=O)s1 [Compound I-8, (S)-N-(2-((1-(6-chloro-2-oxo-1,2-dihydroquinolin-3-yl)ethyl)amino)thiazol-5-yl)acetamide] |  |  | 1000 to 10000 nM |  | > 10000 nM |
| C[C@H](Nc1nsc(N2CCOC2=O)n1)c1cc2cc(Cl)ccc2[nH]c1=O [Compound I-12, 6-chloro-3-[(1S)-1-{[5-(2-oxo-1,3-oxazolidin-3-yl)-1,2,4-thiadiazol-3-yl]amino}ethyl]-1,2-dihydroquinolin-2-one] |  |  | > 10000 nM |  |  |
| COc1ccc2[nH]c(=O)c(CNc3nc(C)c(C)s3)cc2c1 [Compound I-17, 3-{[(dimethyl-1,3-thiazol-2-yl)amino]methyl}-6-methoxy-1,2-dihydroquinolin-2-one] |  |  | > 10000 nM |  |  |
| Cc1nc(N[C@@H](C)c2cc3cc(Cl)ccc3[nH]c2=O)sc1C#N [Compound I-7, (S)-2-((1-(6-chloro-2-oxo-1,2-dihydroquinolin-3-yl)ethyl)amino)-4-methylthiazole-5-carbonitrile] |  | < 100 nM | < 100 nM | 100 to 1000 nM | 100 to 1000 nM |
| O=c1[nH]c2ccc(Cl)cc2cc1CNc1nc(-c2ccccn2)cs1 [Compound I-13, 6-chloro-3-({[4-(pyridin-2-yl)-1,3-thiazol-2-yl]amino}methyl)-1,2-dihydroquinolin-2-one] |  |  | 1000 to 10000 nM |  |  |
| Cc1nc(N[C@@H](C)c2cc3cc(Cl)ccc3[nH]c2=O)sc1C(N)=O [Compound I-11, (S)-2-((1-(6-chloro-2-oxo-1,2-dihydroquinolin-3-yl)ethyl)amino)-4-methylthiazole-5-carboxamide] |  | < 100 nM | < 100 nM | 100 to 1000 nM | 100 to 1000 nM |
| CCc1c(C)sc(NCc2cc3cc(Cl)ccc3[nH]c2=O)c1C#N [Compound I-16, 2-{[(6-chloro-2-oxo-1,2-dihydroquinolin-3-yl)methyl]amino}-4-ethyl-5-methylthiophene-3-carbonitrile] |  |  | > 10000 nM |  |  |
| CC(Nc1ncc(C#N)s1)c1cc2cc(Cl)cnc2[nH]c1=O (stereo not drawn) [Compound I-6, 2-((1-(6-chloro-2-oxo-1,2-dihydro-1,8-naphthyridin-3-yl)ethyl)amino)thiazole-5-carbonitrile] |  |  | 100 to 1000 nM |  |  |
| CC(Nc1ncc(C#N)s1)c1cc2cc(Cl)c(OCc3ccccn3)cc2[nH]c1=O (racemic) [Compound I-3, 2-((1-(6-chloro-2-oxo-7-(pyridin-2-ylmethoxy)-1,2-dihydroquinolin-3-yl)ethyl)amino)thiazole-5-carbonitrile] |  | 100 to 1000 nM | < 100 nM | < 100 nM | 100 to 1000 nM |
